Results as given in patent US20230181700A1 (priority 2021, published 2023).
pIC50: −log10 of the molar value.

System: Vero cells
Assay type: cell-based
Settings: read-out: IC50 of toxicity

C[C@@H]1C[C@@H]([C@H](O)CC2CC(=O)NC(=O)C2)C(=O)[C@@H](C)C1 [cyclohexamide]
pIC50: 6.70
